From PubChem BioAssay AID330 (DTP/NCI, 2004)
Values joined by “and” are separate entries in the source; they are usually repeats but may differ in a detail not shown here. Identical values can stand only once. Toxic doses and inconclusive results are not listed. The calls were made as follows: active = survival T/C of 150% or more; inactive = T/C below 125% in these data.

Tested on: P388 leukemia ip, CD2F1 mice, survival T/C
Assay: NCI In Vivo Anticancer Drug Screen. Data for tumor model P388 Leukemia (intraperitoneal) in CD2F1 (CDF1) mice
Details: endpoint: median survival time, higher = longer survival
Method in brief: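 Mice carrying the transplanted tumor received test compound or vehicle. Survival was recorded in each group, and the value is the treated-group measurement divided by that of the vehicle-treated control group.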

[1] = dose: 50.0 mg/kg/injection, schedule: Q01DX009 (ip), vehicle: saline with Tween-80
[2] = dose: 100.0 mg/kg/injection, schedule: Q01DX009 (ip), vehicle: saline with Tween-80
[3] = dose: 200.0 mg/kg/injection, schedule: Q01DX009 (ip), vehicle: saline with Tween-80
[4] = dose: 60.0 mg/kg/injection, schedule: Q01DX005 (ip), vehicle: saline with Tween-80
[5] = dose: 120.0 mg/kg/injection, schedule: Q01DX005 (ip), vehicle: saline with Tween-80
[6] = dose: 240.0 mg/kg/injection, schedule: Q01DX005 (ip), vehicle: saline with Tween-80
[7] = dose: 100.0 mg/kg/injection, schedule: Q04DX003 (ip), vehicle: saline
[8] = dose: 200.0 mg/kg/injection, schedule: Q04DX003 (ip), vehicle: saline
[9] = dose: 400.0 mg/kg/injection, schedule: Q04DX003 (ip), vehicle: saline
[10] = dose: 50.0 mg/kg/injection, schedule: Q01DX005 (ip), vehicle: saline with Tween-80
[11] = dose: 100.0 mg/kg/injection, schedule: Q01DX005 (ip), vehicle: saline with Tween-80
[12] = dose: 200.0 mg/kg/injection, schedule: Q01DX005 (ip), vehicle: saline with Tween-80
[13] = dose: 50.0 mg/kg/injection, schedule: Q01DX009 (ip), vehicle: Klucel (hydroxypropylcellulose) (HPC)
[14] = dose: 100.0 mg/kg/injection, schedule: Q01DX009 (ip), vehicle: Klucel (hydroxypropylcellulose) (HPC)
[15] = dose: 200.0 mg/kg/injection, schedule: Q01DX009 (ip), vehicle: Klucel (hydroxypropylcellulose) (HPC)
[16] = dose: 100.0 mg/kg/injection, schedule: Q01DX009 (ip), vehicle: saline
[17] = dose: 400.0 mg/kg/injection, schedule: Q01DX009 (ip), vehicle: saline
[18] = dose: 12.5 mg/kg/injection, schedule: Q01DX009 (ip), vehicle: distilled water + Tween-80
[19] = dose: 25.0 mg/kg/injection, schedule: Q01DX009 (ip), vehicle: distilled water + Tween-80
[20] = dose: 50.0 mg/kg/injection, schedule: Q01DX009 (ip), vehicle: distilled water + Tween-80
[21] = dose: 100.0 mg/kg/injection, schedule: Q01DX009 (ip), vehicle: distilled water + Tween-80
[22] = dose: 200.0 mg/kg/injection, schedule: Q01DX009 (ip), vehicle: distilled water + Tween-80

Measured: T/C

CO/C1=C\C(C)=C\C(C)C(O)C(C)C/C(C)=C/C=C/C(OC)C(C(C)C(O)C(C)C(=O)/C=C/C(C)C(C)O)OC1=O (configuration not stated)
inactive: dose: 6.25 mg/kg/injection, schedule: Q01DX005 (ip), vehicle: other 108 % of control | dose: 12.5 mg/kg/injection, schedule: Q01DX005 (ip), vehicle: other 98 % of control | dose: 25.0 mg/kg/injection, schedule: Q01DX005 (ip), vehicle: other 103 % of control | dose: 25.0 mg/kg/injection, schedule: Q01DX005 (ip), vehicle: saline + Tween-80 + alcohol 103 % of control | dose: 50.0 mg/kg/injection, schedule: Q01DX005 (ip), vehicle: other 106 % of control | dose: 50.0 mg/kg/injection, schedule: Q01DX005 (ip), vehicle: saline + Tween-80 + alcohol 94 % of control | dose: 100.0 mg/kg/injection, schedule: Q01DX005 (ip), vehicle: saline + Tween-80 + alcohol 94 % of control

O=C(CC(=NCCN=C(CC(=O)c1ccccc1)c1ccccc1)c1ccccc1)c1ccccc1
inactive: [1] 112 % of control | [2] 100 % of control | [3] 100 % of control

c1ccc(OCc2nn3c(-c4ccccc4)nnc3s2)cc1
inactive: [4] 107 % of control | [5] 94 % of control | [6] 93 % of control

CCOC(=O)N1C=CN(C(=O)OCC)C1c1nccn1C(=O)OCC
inactive: [1] 100 % of control | [2] 96 % of control | [3] 105 % of control

COc1ccccc1C1NC(c2ccccc2OC)C2CCCC1C2 (configuration not stated)
inactive: [7] 91 % of control | [8] 90 % of control | [9] 88 % of control

C=Cc1ccc(Oc2ccccc2)cc1
inactive: dose: 25.0 mg/kg/injection, schedule: Q04DX003 (ip), vehicle: saline 100 % of control | dose: 50.0 mg/kg/injection, schedule: Q04DX003 (ip), vehicle: saline 95 % of control | [7] 109 % of control

COc1ccc(CSc2nn(CCC#N)c(=O)[nH]c2=O)cc1
inactive: [10] 95 % of control | [11] 97 % of control | [12] 94 % of control

Cc1nn(-c2nc(-c3ccccc3)cs2)c(C)c1C
inactive: [13] 98 % of control | [14] 96 % of control | [15] 101 % of control

COC(=O)C(CS)NC(=O)C(Cc1c[nH]c2ccccc12)NC(=O)OC(C)(C)C (configuration not stated)
inactive: dose: 12.5 mg/kg/injection, schedule: Q01DX009 (ip), vehicle: other 88 % of control | dose: 25.0 mg/kg/injection, schedule: Q01DX009 (ip), vehicle: other 103 % of control | dose: 50.0 mg/kg/injection, schedule: Q01DX009 (ip), vehicle: other 100 % of control | dose: 100.0 mg/kg/injection, schedule: Q01DX009 (ip), vehicle: other 99 % of control | dose: 200.0 mg/kg/injection, schedule: Q01DX009 (ip), vehicle: other 103 % of control

CC[n+]1ccc(/C=C\c2c(Cl)cccc2Cl)cc1
inactive: dose: 6.25 mg/kg/injection, schedule: Q01DX009 (ip), vehicle: saline 96 % of control | dose: 12.5 mg/kg/injection, schedule: Q01DX009 (ip), vehicle: saline 104 % of control | dose: 25.0 mg/kg/injection, schedule: Q01DX009 (ip), vehicle: saline 106 % of control

O=C(O)C/[N+]([O-])=N\O
inactive: dose: 50.0 mg/kg/injection, schedule: Q01DX009 (ip), vehicle: saline 102 % of control | [16] 102 % of control | [7] 104 % of control | dose: 200.0 mg/kg/injection, schedule: Q01DX009 (ip), vehicle: saline 96 % of control | [8] 105 % of control | [17] 94 % of control | [9] 92 % of control

CC(C)(C)CC(C)(C)c1ccc(O)c(O)c1
inactive: dose: 25.0 mg/kg/injection, schedule: Q01DX005 (ip), vehicle: saline 100 % of control | dose: 50.0 mg/kg/injection, schedule: Q01DX005 (ip), vehicle: saline 101 % of control | dose: 100.0 mg/kg/injection, schedule: Q01DX005 (ip), vehicle: saline 106 % of control | [16] 106 % of control and 94 % of control | dose: 200.0 mg/kg/injection, schedule: Q01DX005 (ip), vehicle: saline 110 % of control | [17] 94 % of control

CC1(C(=O)O)CCCC2(C)C3=C(CCCC3)CCC12 (configuration not stated)
inactive: [2] 104 % of control | [3] 100 % of control | dose: 400.0 mg/kg/injection, schedule: Q01DX009 (ip), vehicle: saline with Tween-80 95 % of control

O=C(Nc1ccc(Cl)cc1)NN1CCCCCC1
inactive: dose: 25.0 mg/kg/injection, schedule: Q04DX002 (ip), vehicle: saline with Tween-80 103 % of control | dose: 50.0 mg/kg/injection, schedule: Q04DX002 (ip), vehicle: saline with Tween-80 98 % of control

NC(=O)CCNC(=O)OCc1ccccc1
inactive: [18] 105 % of control | [19] 103 % of control | [20] 103 % of control | [21] 104 % of control | [22] 100 % of control

NC(=S)n1nc(-c2ccccc2)c(N=Nc2ccc(Cl)cc2Cl)c1-c1ccccc1
inactive: [10] 94 % of control | [11] 88 % of control | [12] 96 % of control

NC(N)=NNC(O)(C(=O)O)C(=O)O
inactive: dose: 50.0 mg/kg/injection, schedule: Q01DX005 (ip), vehicle: Klucel (hydroxypropylcellulose) (HPC) 100 % of control | dose: 100.0 mg/kg/injection, schedule: Q01DX005 (ip), vehicle: Klucel (hydroxypropylcellulose) (HPC) 96 % of control | dose: 200.0 mg/kg/injection, schedule: Q01DX005 (ip), vehicle: Klucel (hydroxypropylcellulose) (HPC) 96 % of control

CCOC(=O)c1[nH]c(=O)[nH]c(=O)c1I
inactive: [18] 97 % of control | [19] 105 % of control | [20] 106 % of control | [21] 105 % of control | [22] 105 % of control

Cn1c(/C=N/NC2=NCCCN2)cnc1[N+](=O)[O-]
inactive: dose: 100.0 mg/kg/injection, schedule: Q04DX002 (ip), vehicle: saline with Tween-80 97 % of control | dose: 200.0 mg/kg/injection, schedule: Q04DX002 (ip), vehicle: saline with Tween-80 104 % of control | dose: 400.0 mg/kg/injection, schedule: Q04DX002 (ip), vehicle: saline with Tween-80 107 % of control

CC(Cc1ccccc1)N(C)Cc1ccc(-c2ccccc2)o1 (configuration not stated)
inactive: [4] 100 % of control | [5] 108 % of control | [6] 109 % of control

Cc1cc(C)n(-c2ccc(S(=O)(=O)N3CC(=O)N(c4ccccc4)C3=S)cc2)n1
inactive: [10] 95 % of control | [11] 93 % of control

CC(=O)Nc1ccc(C(=O)C(C)Cl)cc1 (configuration not stated)
inactive: [13] 100 % of control and 104 % of control and 105 % of control | [14] 105 % of control and 117 % of control and 89 % of control | [15] 99 % of control and 117 % of control and 123 % of control | dose: 400.0 mg/kg/injection, schedule: Q01DX009 (ip), vehicle: Klucel (hydroxypropylcellulose) (HPC) 105 % of control
